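Interpolation was linear, between the two tested concentrations surrounding the appropriate level; five concentrations were tested over 48 hours in 96-well plates. The concentration for 50% growth inhibition is given as GI50. The concentration for full growth arrest is given as TGI.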
Legend:
Test in all cases: NCI tumour cell line growth inhibition, 48 h; in the data active = GI50 below about 0.43 µM; inactive = the rest
[1] = test system: 786-0 renal
[2] = test system: A498 renal
[3] = test system: A549 NSCLC
[4] = test system: ACHN renal
[5] = test system: BT-549 breast
[6] = test system: CAKI-1 renal
[7] = test system: CCRF-CEM leukemia
[8] = test system: COLO 205 colon
[9] = test system: DU-145 prostate
[10] = test system: EKVX NSCLC
[11] = test system: HCC-2998 colon
[12] = test system: HCT-116 colon
[13] = test system: HCT-15 colon
[14] = test system: HOP-62 NSCLC
[15] = test system: HOP-92 NSCLC
[16] = test system: HT29 colon
[17] = test system: IGROV1 ovarian
[18] = test system: K-562 leukemia
[19] = test system: KM12 colon
[20] = test system: LOX IMVI melanoma
[21] = test system: M14 melanoma
[22] = test system: MALME-3M melanoma
[23] = test system: MCF7 breast
[24] = test system: MDA-MB-231 breast
[25] = test system: MDA-MB-435
[26] = test system: MDA-MB-468 breast
[27] = test system: MOLT-4 leukemia
[28] = test system: NCI-H226 lung
[29] = test system: NCI-H23 lung
[30] = test system: NCI-H460 lung
[31] = test system: NCI-H522 lung
[32] = test system: OVCAR-3 ovarian
[33] = test system: OVCAR-4 ovarian
[34] = test system: OVCAR-5 ovarian
[35] = test system: OVCAR-8 ovarian
[36] = test system: PC-3 prostate
[37] = test system: RPMI-8226 leukemia
[38] = test system: RXF 393 renal
[39] = test system: SF-268 CNS
[40] = test system: SF-295 CNS
[41] = test system: SF-539 CNS
[42] = test system: SK-MEL-2 melanoma
[43] = test system: SK-MEL-28 melanoma
[44] = test system: SK-MEL-5 melanoma
[45] = test system: SK-OV-3 ovarian
[46] = test system: SN12C renal
[47] = test system: SNB-19 CNS
[48] = test system: SR leukemia
[49] = test system: SW-620 colon
[50] = test system: T-47D breast
[51] = test system: TK-10 renal
[52] = test system: U251 CNS
[53] = test system: UACC-62 melanoma
[54] = test system: UO-31 renal

Cc1ccccc1Nc1nnc(-c2c[nH]c3ccccc23)o1
11.6 µM: TGI [16]
6 µM: TGI [40]
7.14 µM: TGI [26]
1.13 µM: TGI [25]
5.22 µM: TGI [41]
4.4 µM: TGI [42]
6.34 µM: TGI [31]
15.9 µM: TGI [11]
inactive: GI50 [1] 5.58 µM | GI50 [2] > 100 µM | GI50 [3] 6.09 µM | GI50 [4] 4.32 µM | GI50 [5] 3.7 µM | GI50 [6] 0.897 µM | GI50 [7] 2.09 µM | GI50 [8] 2.22 µM | GI50 [9] 5.47 µM | GI50 [10] 4.48 µM | GI50 [11] 3.3 µM | GI50 [12] 5.96 µM | GI50 [13] 1.78 µM | GI50 [14] 3.6 µM | GI50 [15] 5.66 µM | GI50 [16] 2.13 µM | GI50 [17] 2.32 µM | GI50 [18] 0.531 µM | GI50 [19] 4.6 µM | GI50 [20] 2.96 µM | GI50 [21] 1.32 µM | GI50 [22] 0.869 µM | GI50 [23] 3.02 µM | GI50 [24] 3.68 µM | GI50 [26] 2.21 µM | GI50 [27] 2.55 µM | GI50 [28] 4.44 µM | GI50 [29] 3.38 µM | GI50 [30] 2.88 µM | GI50 [31] 0.85 µM | GI50 [32] 0.889 µM | GI50 [33] 8.06 µM | GI50 [34] 4.13 µM | GI50 [35] 3.44 µM | GI50 [36] 3.41 µM | GI50 [37] 3.03 µM | GI50 [38] 2.25 µM | GI50 [39] 5.15 µM | GI50 [40] 0.567 µM | GI50 [41] 1.9 µM | GI50 [42] 1.16 µM | GI50 [43] 3.91 µM | GI50 [44] 2.32 µM | GI50 [45] 3.52 µM | GI50 [46] 3.25 µM | GI50 [47] 3.36 µM | GI50 [48] 0.527 µM | GI50 [49] 0.882 µM | GI50 [50] 12.6 µM | GI50 [51] 7.65 µM | GI50 [52] 3.18 µM | GI50 [53] 1.13 µM | GI50 [54] 1.88 µM
9.91 µM: TGI [38]
16.7 µM: TGI [8]
> 100 µM: TGI [1] | TGI [2] | TGI [3] | TGI [4] | TGI [5] | TGI [6] | TGI [7] | TGI [9] | TGI [10] | TGI [12] | TGI [13] | TGI [14] | TGI [15] | TGI [17] | TGI [18] | TGI [19] | TGI [20] | TGI [21] | TGI [22] | TGI [23] | TGI [24] | TGI [27] | TGI [28] | TGI [29] | TGI [30] | TGI [32] | TGI [33] | TGI [34] | TGI [35] | TGI [36] | TGI [37] | TGI [39] | TGI [43] | TGI [44] | TGI [45] | TGI [46] | TGI [47] | TGI [48] | TGI [49] | TGI [50] | TGI [51] | TGI [52] | TGI [53] | TGI [54]
active: GI50 [25] 0.298 µM

Source: PubChem BioAssay (NCI)
